Data taken from patent US20250281610A1, “P2RY2 ACTIVITY MODULATORS” (Deutsches Krebsforschungszentrum Stiftung des öffentlichen …, priority 2022, published 2025).

Legend:
[1] = system: CEA-specific CAR transduced T cells co-cultured with SW480 cells; test: T cell activation in co-culture of CEA-specific CAR-T cells with SW480 cells; type: cell-based, human; details: 10 μM AR-C, 24 hours, CD3+CD8+ or CD3+CD4+ population (FIG. 19)
Procedure: FIG. 19. Effects of P2RY2 agonist and P2RY2 antagonist on T cell activity in T cell-cancer cell co-cultures. T cells transduced with a CEA-specific CAR (CAR-T) were co-cultured with genetically edited SW480 cells for 24 hours in the absence or presence of 40 μM ATP, 200 μM ATPγS, 10 μM Diquafosol, 5 μM Denufosol and 10 μM AR-C 118925XX (AR-C). Control cells: SW480 cells transduced with non-targeting sgRNA and Cas9 (gNT); P2RY2 deficient cells: SW480 cells transduced with P2RY2-targeting sgRNA and Cas9 (gP2RY2-3, gP2RY2-4); B7-H3 (CD276) deficient cells: SW480 cells transduced with B7-H3-targeting sgRNA and Cas9 (gCD276-1); P2RY2 and B7-H3 double deficient cells: SW480 cells transduced with P2RY2-targeting sgRNA, B7-H3-targeting sgRNA, and Cas9 (gCD276-1 gP2RY2-3 DKO, gCD276-1 gP2RY2-4 DKO); P2RY2 overexpression cells: SW480 cells transduced with the open reading frame of P2RY2 (P2RY2-OE); B7-H3 overexpression cells: SW480 cells transduced with the open reading frame of CD276 (CD276-OE). Transduced cancer cells were selected by antibiotics according to antibiotic resistance genes carried by the lentiviral constructs. Flow cytometry analysis of expression of CD25 and CD69 and production of IFNγ within the CD3+CD8+ or CD3+CD4+ cell population is shown (values indicate the percentages of positive cells).
(§1) MART-1 specific T cells were generated as described (Mezzadra et al., Nature 549, 106-110 (2017); Jorritsma et al., Blood 110 (10): 3564-3572. (2007)). To generate CD33-specific chimeric antigen receptor (CAR) T cells and CEA-specific CAR-T cells, a CD33Hul95-CD28Z CAR (described in WO 2019/178382) cassette and MFE-23 (described in US20050147614A1)-CD28Z CAR were separately cloned into retroviral vectors, and the resulting virus was used to transduce T cells as described (Mezzadra et al., Nature 549, 106-110 (2017); Jorritsma et al., Blood 110 (10): 3564-3572. (2007)).
The open reading frames of transcripts of P2RY2 (ENST00000393597.7) or CD276 (ENST00000318443.10), were ordered as a codon optimized gBlock Gene Fragment (Integrated DNA Technologies or Twist Bioscience) and cloned into a lentiviral vector containing a blasticidin selection cassette. Constructs were verified by Sanger sequencing.
(§2) MART1-specific CD8+ T cells and MART1 epitope-expressing cancer cells were mixed at a ratio of 1:16 to 1:1. CD33 CAR-T cells and CD33 expressing THP-1 cells were mixed at a ratio of 1:16 to 1:4. CEA CAR-T cells and CEA expressing SW480 cells were mixed at a ratio of 1:1. Next, cells were centrifugated at 1,600 g for 3 min and incubated at 37° C. and 5% CO2 for 12-72 hours. T cell activation was assessed by surface staining with anti-CD137-BV421 (4-1BB, Biolegend), anti-CD137-PE/Cy7 (4-1BB, Biolegend), anti-CD69-APC/Fire™ 750 (FN50, Biolegend), anti-CD25-AF700 (BC96, Biolegend), anti-CD25-APC (BC96, Biolegend) antibodies and intracellular staining with anti-IL-2-PE/Cy7 (MQ1-17H12, Biolegend), anti-IFN-7-BV421 (4S.B3, Biolegend), anti-TNF-α-BV785 (MAb11, Biolegend), anti-TNF-α-APC (MAb11, Biolegend) antibodies, followed by flow cytometry analysis. For intracellular staining, brefeldin A (Biolegend) was added to the cell culture medium 4 h before cells were harvested. The viability of cancer cells that grow in suspension including THP-1 cells was assessed by flow cytometry-based absolute cell counting using AccuCount beads (Spherotech). For adherent cancer cells including BxPC3, MIA PaCa-2, MDA-MB-231 and MCF7, the cell viability was quantified using CellTiter-Blue Cell Viability Assay (Promega).

BxPC3 cells = test: Viability of BxPC3 cells in co-culture with MART-1-specific TCR-T cells (CellTiter-Blue); type: cell-based, human; details: single agent: 5 μM AR-C, 10 μg/ml atezolizumab or 10 μg/ml durvalumab, 6-24 hours (FIG. 11)
Source text: FIG. 11. […] Untreated cells served as the control.
as §1, with “T” for “T cells and CEA-specific CAR-T”, “was” for “and MFE-23 (described in US20050147614A1)-CD28Z CAR were separately”, “into a” for “into”, “vector,” for “vectors,”
as §2, with “to” for “to 1:1. CD33 CAR-T cells and CD33 expressing THP-1 cells were mixed at a ratio of 1:16 to”, “1:4.” for “1:4. CEA CAR-T cells and CEA expressing SW480 cells were mixed at a ratio of 1:1.”, “Biolegend),” for “Biolegend), anti-CD137-PE/Cy7 (4-1BB, Biolegend),”, “anti-CD25-AF700” for “anti-CD25-AF700 (BC96, Biolegend), anti-CD25-APC”, “anti-TNF-α-BV785” for “anti-TNF-α-BV785 (MAb11, Biolegend), anti-TNF-α-APC”, “BxPC3” for “BxPC3, MIA PaCa-2, MDA-MB-231”

Cc1ccc2c(c1)C=Cc1cc(C)ccc1C2c1cn(Cc2ccc(C(=O)Nc3nn[nH]n3)o2)c(=O)[nH]c1=S [AR-C 118925XX]
expression of T cell activation marker CD25 [1]: increased
expression of T cell activation marker CD69 [1]: increased
expression of T cell activation marker IFN-7 [1]: increased
viability of BxPC3 cells (BxPC3 cells): reduced
